Reference: patent US20160280651A1, “COMPOUNDS THAT INDUCE ABA RESPONSES” (THE REGENTS OF THE UNIVERSITY OF CALIFORNIA, priority 2013, published 2016)

Key:
Arabidopsis seeds = experiment: Arabidopsis germination inhibition analysis, Example 12; assay type: in vivo; settings: assessed after 3 days, dark
Procedure: To analyse the effect of compounds on inhibition of germination, Arabidopsis seeds after-ripened for about 4 weeks were surface-sterilized with a solution containing 5% NaClO and 0.05% Tween-20 for 10 minutes, and rinsed with water four times. Sterilized seeds were suspended with 0.1% agar and sowed on 0.8% solidified agar medium containing ½ Murashige and Skoog (MS) salts (Sigma-Aldrich) in the presence of the relevant treatment, stored at 4° C. for 4 days, and then transferred to 22° C. under the dark conditions. Germination was assessed after 3 days.

[1] = system: HAB1 with PYR/PYL receptors; experiment: Receptor-mediated PP2C inhibition assay with HAB1, Example 1; assay type: biochemical, Arabidopsis; settings: 10 μM; in the presence of all ABA receptors tested
Procedure: (§1) FIG. 2A-FIG. 2C. Novel ABA agonists inhibit PPC2 activity through multiple PYR/PYL. (A) Chemical structure of naturally occurring (+)-ABA and selected ABA agonists. (B) and (C) HAB1, ABU, and ABI2 PP2C enzyme activity based ABA-agonist assays for various receptors in the presence or absence of 10 μM each test chemical.
FIG. 3A-FIG. 3B. (A) Receptor-mediated dose-dependent inhibition of PP2C enzyme activity by ABA agonists and analogs. (B) Observed compound IC50 values in enzymatic HAB1 PP2C-based ABA-agonist assays.
FIG. 4A-FIG. 4B. Quinabactin activates multiple ABA receptors. (A) Chemical structures of ABA, pyrabactin and quinabactin. (B) Chemical-dependent inhibition of HAB1 by ABA receptors. IC50 values (nM) were determined as described in the methods using 50 nM HAB1, 50 nM and multiple concentrations of compounds; full dose response curves are provided as in FIG. 3. (nd) correspond to receptors that were not produced as active proteins. The phylogenetic tree is a Neighbor-Joining tree made using the JTT distance matrix in MEGA5 (Tamura K, et al. (2011) MEGA5: Molecular Evolutionary Genetics Analysis Using Maximum Likelihood, Evolutionary Distance, and Maximum Parsimony Methods. Molecular Biology and Evolution 28(10):2731-2739).
HAB1 and PYL proteins were expressed and purified as described previously (Park S Y, et al. (2009) Abscisic Acid Inhibits Type 2C Protein Phosphatases via the PYR/PYL Family of START Proteins. Science 324(5930):1068-1071), with minor modifications. To obtain GST-HAB1, -ABI1 and -ABI2 fusion proteins, the HAB1 cDNA was cloned into pGex-2T whereas ABI1 and ABI2 cDNAs were cloned into the vector pGex-4T-1. Expression was conducted in BL21[DE3]pLysS host cells. Transformed cells were pre-cultured overnight, transferred to LB medium and cultured at 30° C. to culture A600 of ˜0.5. The culture was then cooled on ice and MnCl2 added to 4 mM and IPTG added to 0.3 mM. After 16 hours incubation at 15° C., cells were harvested and recombinant proteins were purified on glutathione agarose as described previously (Park S Y, et al. (2009). To obtain 6×His-PYL receptor fusion proteins, receptor cDNAs for all 13 ABA receptors were cloned into the vector pET28 and expressed and purified as described previously (Mosquna A, et al. (2011) Potent and selective activation of abscisic acid receptors in vivo by mutational stabilization of their agonist-bound conformation. PNAS 108(51):20838-20843); this yielded soluble and functional protein (assessed using receptor-mediated PP2C inhibition assays) for all receptors except PYL7, PYL11 and PYL12. These three receptors were therefore alternatively expressed as maltose binding (MBP) fusion proteins using the vector pMAL-c; expression of these constructs was carried out in BL21 [DE3]pLysS host strain with the same induction conditions used for GST-HAB1. Recombinant MBP-PYL fusion proteins were purified from sonicated and cleared lysate using amylose resin (New England Biolab, Inc.) using the manufacturers purification instructions. This effort yielded an active MBP-PYL11 fusion protein, but failed for PYL7 and PYL12.
PP2C activity assays using recombinant receptors and PP2Cs were carried out as follows: Purified proteins were pre-incubated in 80 μl assay buffer containing 10 mM MnCl2, 3 μg bovine serum albumin and 0.1% 2-mercaptoethanol with ABA or ABA agonist for 30 minutes at 22° C. Reactions were started by adding 20 μL of a reaction solution containing 156 mM Tris-OAc, pH 7.9, 330 mM KOAc and 5 mM 4-methylumbelliferyl phosphate after which fluorescence measurements were immediately collected using an excitation filter 355 nm and an emission filter 460 nm on a Wallac plate reader. Reactions contained 50 nM PP2C and 100 nM PYR/PYL proteins, respectively.

[2] = system: ABI1 with PYR/PYL receptors; experiment: Receptor-mediated PP2C inhibition assay with ABI1, Example 1; assay type: biochemical, Arabidopsis; settings: 10 μM; in the presence of all ABA receptors tested
Procedure: as §1
(§2) HAB1 and PYL proteins were expressed and purified as described previously (Park S Y, et al. (2009) Abscisic Acid Inhibits Type 2C Protein Phosphatases via the PYR/PYL Family of START Proteins. Science 324(5930):1068-1071), with minor modifications. To obtain GST-HAB1, -ABI1 and -ABI2 fusion proteins, the HAB1 cDNA was cloned into pGex-2T whereas ABI1 and ABI2 cDNAs were cloned into the vector pGex-4T-1. […] After 16 hours incubation at 15° C., cells were harvested and recombinant proteins were purified on glutathione agarose as described previously (Park S Y, et al. (2009). To obtain 6×His-PYL receptor fusion proteins, receptor cDNAs for all 13 ABA receptors were cloned into the vector pET28 and expressed and purified as described previously (Mosquna A, et al. (2011) Potent and selective activation of abscisic acid receptors in vivo by mutational stabilization of their agonist-bound conformation. PNAS 108(51):20838-20843); this yielded soluble and functional protein (assessed using receptor-mediated PP2C inhibition assays) for all receptors except PYL7, PYL11 and PYL12. […]

Chlamydomonas = experiment: Colony growth of Chlamydomonas with and without salinity and osmotic stress; assay type: in vivo
Procedure: FIG. 17A-FIG. 17D. The effect of ABA and its agonists in Physcomitrella patens and Chlamydomonas. Protonemal growth images (A) and quantitative analysis (B) of the effects of ABA and agonists on Phsycomitrella patens. Protonema were grown on 200 μM of specific test chemical for 10 days. […] Pyrabactin bleached protonema. (C) The expression of ABA-responsive genes of Physcomitrella patens. Protonema were treated with 200 μM chemical solutions for 3 h. (D) Colony growth of Chlamydomonas on the chemical with salinity stress and osmotic stress. There was no effect of ABA and LC66C6 on the Chlamydomonas growth with and without stresses.

[3] = system: ABI2 with PYR/PYL receptors; experiment: Receptor-mediated PP2C inhibition assay with ABI2, Example 1; assay type: biochemical, Arabidopsis; settings: 10 μM; in the presence of all ABA receptors tested
Procedure: as §1, §2

ABA-responsive genes = experiment: Quantitative RT-PCR of ABA-responsive genes in Arabidopsis; assay type: in vivo
Procedure: FIG. 9A-FIG. 9D. LC66C6 induces numerous ABA-responsive genes. […] Ten-day old seedlings were treated with carrier solvent (DMSO) or either 25 μM ABA, pyrabactin or LC66C6 for 8 hours. Total RNA was then prepared labeled and hybridized to ATH1 microarrays. Data plotted are log 2 transformed average expression values for ˜13K probes that were detectable across all experiments. Data shown are averages determined from triplicate biological replicates. (C) and (D) show the expression of a reporter gene in different plant tissues after treatment with vehicle (DMSO), pyrabactin, LC66C6, or (+)-ABA.
FIG. 10. ABA-responsive gene expression in PYR/PYL single mutants. The response of the ABA-responsive MAPKKK18, RD29A, and RD29B mRNAs to LC66C6, ABA and pyrabactin were characterized in the Col and Ler ecotypes and the pyr1, pyl1, ply2, pyl3 and pyl4 single mutant genotypes.
FIG. 11. LC66C6 induces ABA-responsive gene expression in wild-type plants, abi1-1 and PYR/PYL quadruple mutants.
Total RNA was isolated using Plant RNA purification reagent (Invitrogen, USA) according to the manufacturer's instructions. cDNA was synthesized from 1 μg of total RNA using the QantiTec reverse transcription kit (Qiagen, USA). Real-time PCR using Maxima® SYBR Green/Fluorescein qPCR Master Mix (Fermentas) was performed with the iQ5 real-time PCR detection system (Bio-Rad, Hercules, Calif.). The relative amounts of target mRNAs were determined using the relative standard curve method and were normalized by relative amount of internal control mRNA. Biological triplicate experiments were performed.

Structure (SMILES) | Percentage germination of Arabidopsis seeds (Arabidopsis seeds; 0.2 uM) [%] | Percentage germination of Arabidopsis seeds (Arabidopsis seeds; 1 uM) [%] | Percentage germination of Arabidopsis seeds (Arabidopsis seeds; 5 uM) [%] | Percentage germination of Arabidopsis seeds (Arabidopsis seeds; 25 uM) [%] | Inhibition of PP2C enzyme activity of HAB1 [1] [%] | Inhibition of PP2C enzyme activity of ABI1 [2] [%] | Growth of Chlamydomonas (Chlamydomonas) | Inhibition of PP2C enzyme activity of ABI2 [3] [%] | Induction of MAPKKK18, RD29A and RD29B mRNAs (ABA-responsive genes; Col and Ler ecotypes and pyr1, pyl1, pyl2, pyl3, pyl4 single mutants) | Expression of ABF3, GBF3, NCED3 and RD29A (ABA-responsive genes; Col wild-type plants)
C=CCN1C(=O)CCc2cc(NS(=O)(=O)Cc3ccc(OC(F)(F)F)cc3)cc(C)c21 | 100 | 100 | 30 | 0 |  |  |  |  |  | 
C#CCN1C(=O)CCc2cc(NS(=O)(=O)Cc3ccc(OC(F)(F)F)cc3)cc(C)c21 | 100 | 100 | 68 | 0 |  |  |  |  |  | 
C=CCN1C(=O)CCc2cc(NS(=O)(=O)Cc3ccc(Br)cc3)cc(C)c21 | 100 | 100 | 96 | 0 |  |  |  |  |  | 
C=CCN1C(=O)CCc2cc(NS(=O)(=O)Cc3ccc(C)cc3)cc(C)c21 | 100 | 100 | 100 | 0 |  |  |  |  |  | 
C=CCN1C(=O)CCc2cc(NS(=O)(=O)Cc3ccc(Cl)cc3)cc(C)c21 | 100 | 100 | 100 | 0 |  |  |  |  |  | 
C#CCN1C(=O)CCc2cc(NS(=O)(=O)Cc3ccc(Br)cc3)cc(C)c21 | 100 | 100 | 100 | 0 |  |  |  |  |  | 
C#CCN1C(=O)CCc2cc(NS(=O)(=O)Cc3ccc(C)cc3)cc(C)c21 | 100 | 100 | 100 | 0 |  |  |  |  |  | 
C=CCN1C(=O)C(C)Cc2cc(NS(=O)(=O)Cc3ccc(OC(F)(F)F)cc3)ccc21 (stereo not shown) | 100 | 100 | 100 | 14 |  |  |  |  |  | 
C=CCN1C(=O)C(C)Cc2cc(NS(=O)(=O)Cc3ccc(C)cc3)ccc21 (stereo not shown) | 99 | 100 | 100 | 71 |  |  |  |  |  | 
CC1=CC(=O)CC(C)(C)C1(O)/C=C/C(C)=C\C(=O)O (single isomer, unassigned; (+)) [(+)-ABA, Abscisic acid, reference compound] |  |  |  |  | > 90 | > 90 | no effect | > 90 | induced | induced expression of ABF3, GBF3, NCED3, and RD29A in a dose dependent manner
CCCN1C(=O)CCc2cc(NS(=O)(=O)Cc3ccc(C)cc3)ccc21 [drawing 36] | 100 | 46 | 0 | 0 |  |  |  |  |  | 
